Data reported in patent US20080194585A1, “Fungicidal Pyrazine Derivatives” (priority 2005, published 2008).
Marks after values point to notes of the source that are not given here.

Legend:
Pythium aphanidermatum = test: Test A: bluegrass pythium blight, preventive spray on bluegrass seedlings; conditions: 100 = 100% disease control, 0 = no control
Botrytis cinerea = test: Test E: tomato botrytis, preventive spray on tomato seedlings; conditions: 40 ppm (marked *); 100 = 100% disease control, 0 = no control
Phytophthora infestans = test: whole plant or invertebrate; assay type: in vivo; conditions: 100 = 100% disease control
Septoria tritici = test: Test J: wheat leaf blotch, preventive spray on wheat seedlings; assay type: in vivo; conditions: 40 ppm (marked *); 100 = 100% disease control, 0 = no control
From the text: A dash (-) indicates no test results.

Septoria nodorum = test: Test H: wheat glum blotch, preventive spray on wheat seedlings; conditions: 40 ppm (marked *); 100 = 100% disease control, 0 = no control
Description: (the causal agent of wheat glum blotch) and incubated in a saturated atmosphere at 20° C. for 48 h, and then moved to a growth chamber at 22° C. for 5 days, after which disease ratings were made.

Plasmopara viticola = test: Test D: grape downy mildew, spray after inoculation of grape seedlings; assay type: in vivo; conditions: 100 = 100% disease control
From the text: Upon removal, disease ratings were made. […] A dash (-) indicates no test results.

[1] = test system: Puccinia recondita f. sp. tritici; test: Test K: wheat leaf rust, preventive spray on wheat seedlings; conditions: 40 ppm (marked *); 100 = 100% disease control, 0 = no control
Rhizoctonia oryzae = test: Test G: turf brown patch, preventive spray on creeping bent grass seedlings; conditions: 40 ppm (marked *); 100 = 100% disease control, 0 = no control
Description: (the causal agent of turf brown patch) and incubated in a saturated atmosphere at 27° C. for 24 h, and then moved to a growth chamber at 27° C. for 5 days, after which disease ratings were made.

[2] = test system: Colletotrichum orbiculare; test: Test B: cucumber Colletotrichum anthracnose, preventive spray on cucumber seedlings; conditions: 40 ppm (marked *); 100 = 100% disease control, 0 = no control
fusarium graminearium = test: Test I: wheat head scab, preventive spray on wheat seedlings; conditions: 100 = 100% disease control
Description: (the causal agent of wheat head scab) and incubated in a saturated atmosphere at 20° C. for 72 h, and then moved to a growth chamber at 22° C. for 5 days, after which disease ratings were made.

[3] = test system: Erysiphe graminis f. sp. tritici; test: Test L: wheat powdery mildew, preventive spray on wheat seedlings; conditions: 40 ppm (marked *); 100 = 100% disease control, 0 = no control
[4] = 40 ppm (marked *), 0 = no control
[5] = 200 ppm, 0 = no control relative to controls

Structure (SMILES)	Test A disease control rating (Pythium aphanidermatum; 200 ppm)	Test E disease control rating (Botrytis cinerea)	Test F disease control rating (Phytophthora infestans; 200 ppm, 0 = no control)	Test J disease control rating (Septoria tritici)	Test H disease control rating (Septoria nodorum)	Test D disease control rating (Plasmopara viticola; 200 ppm, 0 = no control)	Test K disease control rating [1]	Test G disease control rating (Rhizoctonia oryzae)	Test B disease control rating [2]	Test I disease control rating (fusarium graminearium; 200 ppm, 0 = no control)	Test L disease control rating [3]	Test A disease control rating (Pythium aphanidermatum; 40 ppm (marked *))	Test F disease control rating (Phytophthora infestans; [4])	Test D disease control rating (Plasmopara viticola; [4])	Test I disease control rating (fusarium graminearium; [4])	Test D disease control rating (Plasmopara viticola; [5])	Test F disease control rating (Phytophthora infestans; [5])	Test I disease control rating (fusarium graminearium; [5])
O=c1c(-n2cccn2)nc(Cl)c(-c2c(F)cc(F)cc2F)n1-c1cccc(C(F)(F)F)c1 [compound 353]	0%	98* %	0%	100* %	98* %	0%	91* %	0* %	16* %	0%	79* %							
O=c1c(-n2cccn2)nc(Cl)c(-c2c(F)cc(F)cc2F)n1-c1ccc(C(F)(F)F)cc1 [compound 354]	0%	95* %	0%	100* %	91* %	0%	97* %	47* %	9* %	0%	48* %							
Cc1nc(-c2ccccn2)c(=O)n(-c2ccccc2)c1-c1c(F)cccc1F [compound 359]		0* %		85* %	0* %		0* %	0* %	0* %		0* %	81* %	0* %	8* %	65* %			
O=c1c(-n2cccn2)nc(Cl)c(-c2c(F)cccc2F)n1-c1ccccc1Br [compound 360]	0%	99* %	0%	100* %	100* %	0%	100* %	65* %	0* %	86%	99* %							
O=c1c(-n2cccn2)nc(Cl)c(-c2c(F)cccc2F)n1C1CC1 [compound 361]	0%	92* %	0%	3* %	98* %	0%	83* %	31* %	0* %	0%	0* %							
O=c1c(-n2cccn2)nc(Cl)c(-c2c(F)cccc2F)n1C1CC1c1ccccc1 (stereo not shown) [compound 362]	0%	0* %	0%	0* %	0* %	0%	0* %	0* %	0* %	0%	0* %							
O=c1c(-n2cccn2)nc(Cl)c(-c2c(F)cccc2F)n1C1CCC1 [compound 363]	0%	99* %	0%	59* %	100* %	0%	100* %	93* %	0* %	0%	99* %							
CC(C)Cn1c(-c2c(F)cccc2F)c(Cl)nc(-c2cnccn2)c1=O.Cl [compound 364]	0%	99* %	0%	0* %	0* %	0%	92* %	16* %	0* %	82%	88* %							
O=c1c(-n2cccn2)nc(Cl)c(-c2c(F)cc(F)cc2F)n1-c1cccc(Cl)c1 [compound 373]		100* %		96* %	99* %		100* %	93* %	99* %		100* %	0* %	0* %	0* %	78* %			
Cc1ccn(-c2nc(Cl)c(-c3c(F)cc(F)cc3F)n(-c3cccc(Cl)c3)c2=O)n1 [compound 374]		99* %		100* %	100* %		100* %	78* %	100* %		100* %	0* %	0* %	0* %	0* %			
O=c1c(-n2cccn2)nc(Cl)c(-c2c(F)cc(F)cc2F)n1-c1ccccc1Cl [compound 375]		99* %		100* %	100* %		100* %	95* %	100* %		100* %	0* %	0* %	0* %	80* %			
Cc1ccn(-c2nc(Cl)c(-c3c(F)cc(F)cc3F)n(-c3ccccc3Cl)c2=O)n1 [compound 376]		99* %		100* %	100* %		100* %	98* %	100* %		100* %	0* %	0* %		0* %	40%		
O=c1c(-n2cccn2)nc(Cl)c(-c2c(F)cc(F)cc2F)n1Cc1ccc(Br)cc1 [compound 377]		99* %		100* %	0* %		98* %	0* %	31* %		94* %	0* %		0* %			0%	0%
Cc1cccc(-n2c(-c3c(F)cccc3F)c(Cl)nc(-n3cccn3)c2=O)c1C [compound 378]		98* %		100* %	98* %		98* %	51* %	0* %		91* %	0* %	0* %	0* %	0* %			
